Columns and labels:
[1] = test system: Lolium spp. resistant to HRAC group A; assay: greenhouse experiment, post-emergence treatment of resistant ryegrass biotypes (HRAC group A resistant); format: in vivo; settings: post-emergence (PO, BBCH 11), about 3 weeks after application, dose g of AS/ha: aclonifen 225, pendimethalin 300, picolinafen 25, mixture 225 + 300 + 25, pinoxaden + cloquintocet-mexyl 60 + 15
Procedure: (§1) In the standard design of the test, seeds of various broad-leaved weed and weed grass biotypes (origins) were sown in a 8-13 cm diameter pot filled with natural soil of a standard field soil (loamy silt; non-sterile) and covered with a covering soil layer of about 1 cm. The pots were then cultivated in a greenhouse (12-16 h light, temperature day 20-22° C., night 15-18° C.) until the time of application. The pots were treated on a laboratory track sprayer with spray liquors comprising the compositions according to the invention, mixtures of the prior art or components used individually. Application of the active compounds or active compound combinations formulated as WG, WP, EC or otherwise was carried out at the appropriate growth stages of the plants. The amount of water used for spray application was 100-600 l/ha. After the treatment, the plants were returned to the greenhouses.
(§2) About 3 weeks after the application, the soil action or/and foliar action was assessed visually according to a scale of 0-100% in comparison to an untreated comparative group: 0%=no noticeable effect compared to the untreated comparative group; 100%=full effect compared to the untreated comparative group.
(§3) 2. Post-emergence action against weeds: seeds of various broad-leaved weed and weed grass biotypes (origins) were sown in a 8-13 cm diameter pot filled with natural soil of a standard field soil (loamy silt; non-sterile) and covered with a covering soil layer of about 1 cm. The pots were then cultivated in a greenhouse (12-16 h of light, temperature day 20-22° C., night 15-18° C.) until the time of application. […]
(§4) Insofar as herbicidal effects of the compositions according to the invention compared to mixtures of the prior art or compared to components applied individually against economically important mono- and dicotyledonous harmful plants were the center of attention, the synergistic herbicidal activities were calculated using Colby's formula (cf. S. R. Colby; Weeds 15 (1967), 20-22): E^C=(A+B+C)−(A×B+A×C+B×C)/100+(A×B×C)/10000 where: […]

[2] = test system: Lolium spp. resistant to HRAC group B; assay: greenhouse experiment, post-emergence treatment of resistant ryegrass biotypes (HRAC group B resistant); format: in vivo; settings: post-emergence (PO, BBCH 11), about 3 weeks after application, dose g of AS/ha: aclonifen 225, pendimethalin 300, picolinafen 25, mixture 225 + 300 + 25, mesosulfuron + iodosulfuron + mefenpyr 15 + 3 + 45
Procedure: as §1, §2, §3, §4

Compound: CCC(CC)Nc1c([N+](=O)[O-])cc(C)c(C)c1[N+](=O)[O-] [(B) pendimethalin, N-(1-ethylpropyl)-3,4-dimethyl-2,6-dinitrobenzenamine]
- herbicidal effect, visual assessment on a scale of 0-100% versus untreated comparative group [1]: 5%
- herbicidal effect, visual assessment on a scale of 0-100% versus untreated comparative group [2]: 0%

Compound: O=C(Nc1ccc(F)cc1)c1cccc(Oc2cccc(C(F)(F)F)c2)n1 [(C) picolinafen, N-(4-fluorophenyl)-6-[3-(trifluoromethyl)phenoxy]-2-pyridinecarboxamide]
- herbicidal effect, visual assessment on a scale of 0-100% versus untreated comparative group [1]: 10%
- herbicidal effect, visual assessment on a scale of 0-100% versus untreated comparative group [2]: 5%

Compound: Nc1c([N+](=O)[O-])ccc(Oc2ccccc2)c1Cl [(A) aclonifen, 2-chloro-6-nitro-3-phenoxybenzenamine]
- herbicidal effect, visual assessment on a scale of 0-100% versus untreated comparative group [1]: 25%
- herbicidal effect, visual assessment on a scale of 0-100% versus untreated comparative group [2]: 50%

— patent US9426990B2, “Herbicidal agents containing aclonifen” (BAYER CROPSCIENCE AG, priority 2012, dated 2016)
